Data taken from the supplement of paper PMC11208160.

experiment: recombinant barcode read abundance after kanamycin selection (control-corrected) (log10(CPM+1)); higher = more efficient recombination; sequences stand for … in AGTGCAGAGAAAATCGGCCAGTTTTCTCTGCCTGCAGTCCGCATGCCGT…AGATTTATGCAGCGGACTGCCTTTCTCCCAAAGTGATAAACCGGACAGTATCATGGACCGGTTTTCCCGGTAATCCGTATTTGCAAGGTTGGTTTCACT; site = the 11-nt target
Summary of the method: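 For this pooled screen, each oligo contained a promoter, a target, a barcode and the J23119-driven first 104 bases of the bridge RNA. Gibson cloning placed it into a vector supplying the remaining 73 bp and a T7-inducible recombinase, and the pool was co-electroporated into E. coli with a donor plasmid. Recombination efficiency is derived from barcode counts per million at recombinant junctions after averaging and control correction, and is expressed on a log scale as log10(CPM+1), with selection on chloramphenicol/ampicillin/kanamycin plus 0.1 mM IPTG against a chloramphenicol/ampicillin LB agar control.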
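Also: IS621 recombinase and bridge RNA in Escherichia coli cells.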

“TAATATTCTTGGGTTCTAACCTGTTGCCT (site TAATATTCTAG)” and “TAATATTCTTGGGTTCTAACCTGTTGCCT (site TAGGATTCTAG)” are within 0.2 log units of each other in “recombinant barcode read abundance (log10)” value: 0.0128 for the first, 0.041 for the second.

Compared with “TAATCCTCTTGGGTTCTAACCTGTTGCCT (site AAATCCTCTAG)”, “TAATCCTCTTGGGTTCTAACCTGTTGCCT (site CAATCCTCTAG)” is lower in “recombinant barcode read abundance (log10)” value: 0.984 for the first, 0.0292 for the second.

Compared with “TAATCCTCTTGGGTTCTAACCTGTTGCCT (site GAATCCTCTAG)”, “TAATCCTCTTGGGTTCTAACCTGTTGCCT (site TAATCCTCTAG)” is higher in “recombinant barcode read abundance (log10)” value: 0.0754 for the first, 1.3 for the second.

Going from “TAATCGACTTGGGTTCTAACCTGTTGCCT (site TAATCGACTAG)” to “TAATCGACTTGGGTTCTAACCTGTTGCCT (site TAATCGCCTAG)”, the “recombinant barcode read abundance (log10)” value rises from 0.102 to 0.643.

“TAATCGACTTGGGTTCTAACCTGTTGCCT (site TAATCGGCTAG)” and “TAATCGACTTGGGTTCTAACCTGTTGCCT (site TAATCGTCTAG)” are within 0.2 log units of each other in “recombinant barcode read abundance (log10)” value: 0 for the first, 0.0431 for the second.

Going from “TAATGGCCTTGGGTTCTAACCTGTTGCGA (site ATGAACACTCA)” to “TAATGGCCTTGGGTTCTAACCTGTTGCGA (site TAATGGCCTTC)”, the “recombinant barcode read abundance (log10)” value rises from 0.0388 to 0.942.

Going from “TAATGTACTTGGGTTCTAACCTGTTGCCT (site TAATGAACTAG)” to “TAATGTACTTGGGTTCTAACCTGTTGCCT (site TAATGTACTAG)”, the “recombinant barcode read abundance (log10)” value rises from 0.125 to 0.556.

Compared with “TAATTAGCTTGGGTTCTAACCTGTTGCCT (site TAAATAGCTAG)”, “TAATTAGCTTGGGTTCTAACCTGTTGCCT (site TAATTAGCTAG)” is higher in “recombinant barcode read abundance (log10)” value: 0.0142 for the first, 0.435 for the second.

First: TACAAGACTTGGGTTCTAACCTGTTGCGT (site GGACCCTCTGT)
Second: TACAAGACTTGGGTTCTAACCTGTTGCGT (site TACAAGACTAC)
The “recombinant barcode read abundance (log10)” value of the first is lower: 0.168 for the first, 1.36 for the second.

First: TACAAGTCTTGGGTTCTAACCTGTTGCCT (site CTACGACCTCC)
Second: TACAAGTCTTGGGTTCTAACCTGTTGCCT (site TACAAGTCTAG)
The “recombinant barcode read abundance (log10)” value of the first is lower: 0.289 for the first, 0.625 for the second.

“TACAGACCTTGGGTTCTAACCTGTTGCCT (site AACAGACCTAG)” and “TACAGACCTTGGGTTCTAACCTGTTGCCT (site CACAGACCTAG)” are within 0.2 log units of each other in “recombinant barcode read abundance (log10)” value: 0.11 for the first, 0.197 for the second.

Compared with “TACAGACCTTGGGTTCTAACCTGTTGCCT (site GACAGACCTAG)”, “TACAGACCTTGGGTTCTAACCTGTTGCCT (site TACAGACCTAG)” is higher in “recombinant barcode read abundance (log10)” value: 0.065 for the first, 1.11 for the second.

“TACAGCTCTTGGGTTCTAACCTGTTGCTT (site TACAGCTCTAA)” and “TACAGCTCTTGGGTTCTAACCTGTTGCTT (site TACCGCTCTAA)” are within 0.2 log units of each other in “recombinant barcode read abundance (log10)” value: 0.016 for the first, 0.104 for the second.

“TACAGCTCTTGGGTTCTAACCTGTTGCTT (site TACGGCTCTAA)” and “TACAGCTCTTGGGTTCTAACCTGTTGCTT (site TACTGCTCTAA)” are within 0.2 log units of each other in “recombinant barcode read abundance (log10)” value: 0.0374 for the first, 0.107 for the second.

Compared with “TACATCCCTTGGGTTCTAACCTGTTGCCC (site TACATCCCTAG)”, “TACATCCCTTGGGTTCTAACCTGTTGCCC (site TACATCCCTCG)” is lower in “recombinant barcode read abundance (log10)” value: 0.41 for the first, 0.111 for the second.

First: TACATCCCTTGGGTTCTAACCTGTTGCCC (site TACATCCCTGG)
Second: TACATCCCTTGGGTTCTAACCTGTTGCCC (site TACATCCCTTG)
The “recombinant barcode read abundance (log10)” value of the first is higher: 0.646 for the first, 0.0347 for the second.

First: TACCATTCTTGGGTTCTAACCTGTTGCTT (site TACAGTTCTAA)
Second: TACCATTCTTGGGTTCTAACCTGTTGCTT (site TACCATTCTAA)
The “recombinant barcode read abundance (log10)” value of the first is lower: 0.0331 for the first, 0.239 for the second.

“TACCCACCTTGGGTTCTAACCTGTTGCCT (site AACCCACCTAG)” and “TACCCACCTTGGGTTCTAACCTGTTGCCT (site CACCCACCTAG)” are within 0.2 log units of each other in “recombinant barcode read abundance (log10)” value: 0.295 for the first, 0.169 for the second.

Compared with “TACCCACCTTGGGTTCTAACCTGTTGCCT (site GACCCACCTAG)”, “TACCCACCTTGGGTTCTAACCTGTTGCCT (site TACCCACCTAG)” is higher in “recombinant barcode read abundance (log10)” value: 0.262 for the first, 1.47 for the second.

Going from “TACCCATCTTGGGTTCTAACCTGTTGCCT (site TAACCATCTAG)” to “TACCCATCTTGGGTTCTAACCTGTTGCCT (site TACCCATCTAG)”, the “recombinant barcode read abundance (log10)” value rises from 0.0921 to 0.862.

“TACCCATCTTGGGTTCTAACCTGTTGCCT (site TAGCCATCTAG)” and “TACCCATCTTGGGTTCTAACCTGTTGCCT (site TATCCATCTAG)” are within 0.2 log units of each other in “recombinant barcode read abundance (log10)” value: 0.106 for the first, 0.0366 for the second.

Compared with “TACCCGACTTGGGTTCTAACCTGTTGCCT (site TACCAGACTAG)”, “TACCCGACTTGGGTTCTAACCTGTTGCCT (site TACCCGACTAG)” is higher in “recombinant barcode read abundance (log10)” value: 0.0911 for the first, 1.41 for the second.

“TACCCGACTTGGGTTCTAACCTGTTGCCT (site TACCGGACTAG)” and “TACCCGACTTGGGTTCTAACCTGTTGCCT (site TACCTGACTAG)” are within 0.2 log units of each other in “recombinant barcode read abundance (log10)” value: 0.178 for the first, 0.00741 for the second.

Going from “TACCCGCCTTGGGTTCTAACCTGTTGCCT (site TACCCGCCTAG)” to “TACCCGCCTTGGGTTCTAACCTGTTGCCT (site TCCCCGGCTAG)”, the “recombinant barcode read abundance (log10)” value falls from 0.838 to 0.206.

Going from “TACCCTACTTGGGTTCTAACCTGTTGCAT (site TACACTACTAT)” to “TACCCTACTTGGGTTCTAACCTGTTGCAT (site TACCCTACTAT)”, the “recombinant barcode read abundance (log10)” value rises from 0.0106 to 0.654.

First: TACCGCCCTTGGGTTCTAACCTGTTGCGT (site GGAAAGACTGT)
Second: TACCGCCCTTGGGTTCTAACCTGTTGCGT (site TACCGCCCTAC)
The “recombinant barcode read abundance (log10)” value of the first is lower: 0.166 for the first, 1.95 for the second.

First: TACCGGACTTGGGTTCTAACCTGTTGCGT (site TACCGGACTAC)
Second: TACCGGACTTGGGTTCTAACCTGTTGCGT (site TACCGGCCTAA)
The “recombinant barcode read abundance (log10)” value of the first is higher: 2.13 for the first, 0.0831 for the second.

Compared with “TACCGTTCTTGGGTTCTAACCTGTTGCCT (site TAACGTTCTAG)”, “TACCGTTCTTGGGTTCTAACCTGTTGCCT (site TACCGTTCTAG)” is higher in “recombinant barcode read abundance (log10)” value: 0 for the first, 0.41 for the second.

Going from “TACGAATCTTGGGTTCTAACCTGTTGCCG (site TACGAATCTAG)” to “TACGAATCTTGGGTTCTAACCTGTTGCCG (site TACGAATCTCG)”, the “recombinant barcode read abundance (log10)” value rises from 0.235 to 0.465.

First: TACGAGGCTTGGGTTCTAACCTGTTGCCT (site TACGAGGCTAG)
Second: TACGAGGCTTGGGTTCTAACCTGTTGCCT (site TACGCGGCTAG)
The “recombinant barcode read abundance (log10)” value of the first is higher: 0.406 for the first, 0.0314 for the second.

“TACGAGGCTTGGGTTCTAACCTGTTGCCT (site TACGGGGCTAG)” and “TACGAGGCTTGGGTTCTAACCTGTTGCCT (site TACGTGGCTAG)” are within 0.2 log units of each other in “recombinant barcode read abundance (log10)” value: 0.0616 for the first, 0.0666 for the second.

“TACGCTCCTTGGGTTCTAACCTGTTGCAT (site TACGCTCCTAA)” and “TACGCTCCTTGGGTTCTAACCTGTTGCAT (site TACGCTCCTAC)” are within 0.2 log units of each other in “recombinant barcode read abundance (log10)” value: 0.053 for the first, 0.0178 for the second.

Going from “TACGCTCCTTGGGTTCTAACCTGTTGCAT (site TACGCTCCTAG)” to “TACGCTCCTTGGGTTCTAACCTGTTGCAT (site TACGCTCCTAT)”, the “recombinant barcode read abundance (log10)” value rises from 0.284 to 0.785.

“TACGCTCCTTGGGTTCTAACCTGTTGCTT (site TACGCTCCTAA)” and “TACGCTCCTTGGGTTCTAACCTGTTGCTT (site TACGCTCCTAC)” are within 0.2 log units of each other in “recombinant barcode read abundance (log10)” value: 0.243 for the first, 0.176 for the second.

“TACGCTCCTTGGGTTCTAACCTGTTGCTT (site TACGCTCCTAG)” and “TACGCTCCTTGGGTTCTAACCTGTTGCTT (site TACGCTCCTAT)” are within 0.2 log units of each other in “recombinant barcode read abundance (log10)” value: 0.0812 for the first, 0.017 for the second.

“TACTATACTTGGGTTCTAACCTGTTGCCT (site TACTATACTAG)” and “TACTATACTTGGGTTCTAACCTGTTGCCT (site TACTATCCTAG)” are within 0.2 log units of each other in “recombinant barcode read abundance (log10)” value: 0.181 for the first, 0.131 for the second.

“TACTATACTTGGGTTCTAACCTGTTGCCT (site TACTATGCTAG)” and “TACTATACTTGGGTTCTAACCTGTTGCCT (site TACTATTCTAG)” are within 0.2 log units of each other in “recombinant barcode read abundance (log10)” value: 0.0468 for the first, 0.149 for the second.

First: TACTATCCTTGGGTTCTAACCTGTTGCCT (site TACTATACTAG)
Second: TACTATCCTTGGGTTCTAACCTGTTGCCT (site TACTATCCTAG)
The “recombinant barcode read abundance (log10)” value of the first is lower: 0.0496 for the first, 0.441 for the second.

“TACTATCCTTGGGTTCTAACCTGTTGCCT (site TACTATGCTAG)” and “TACTATCCTTGGGTTCTAACCTGTTGCCT (site TACTATTCTAG)” are within 0.2 log units of each other in “recombinant barcode read abundance (log10)” value: 0 for the first, 0.162 for the second.

“TACTATGCTTGGGTTCTAACCTGTTGCCT (site TACTATACTAG)” and “TACTATGCTTGGGTTCTAACCTGTTGCCT (site TACTATCCTAG)” are within 0.2 log units of each other in “recombinant barcode read abundance (log10)” value: 0.211 for the first, 0.163 for the second.

Compared with “TACTATGCTTGGGTTCTAACCTGTTGCCT (site TACTATGCTAG)”, “TACTATGCTTGGGTTCTAACCTGTTGCCT (site TACTATTCTAG)” is lower in “recombinant barcode read abundance (log10)” value: 1.19 for the first, 0.187 for the second.

First: TACTCCGCTTGGGTTCTAACCTGTTGCCT (site GACTCCGCTAG)
Second: TACTCCGCTTGGGTTCTAACCTGTTGCCT (site TACTCCGCTAG)
The “recombinant barcode read abundance (log10)” value of the first is lower: 0.031 for the first, 1.02 for the second.

First: TACTGAGCTTGGGTTCTAACCTGTTGCCT (site CACTGAGCTAG)
Second: TACTGAGCTTGGGTTCTAACCTGTTGCCT (site TACTGAGCTAG)
The “recombinant barcode read abundance (log10)” value of the first is lower: 0.0308 for the first, 0.52 for the second.
